Laboratory results from patent US6127396A, “Imidazoline compounds” (Adir et Compagnie, priority 1998, dated 2000).
Counter-ions that a name gives are not always drawn. One block for each compound: values may come before it.

Columns and labels:
Format in all cases: binding
[1] = molecular target: T1, noradrenaline reuptake sites (Rattus norvegicus, UniProt Q63380); test: Affinity for noradrenaline reuptake sites in the rat, competition with [3H]-nisoxetine; conditions: rat frontal cortex membranes, 2 nM [3H]-nisoxetine, 4 hours at 4° C.
T1 construct: The membranes are prepared from the frontal cortex of the rat; from tissue; host or cells: rat frontal cortex membranes
Experimental: Determination of the Affinity for Noradrenaline Reuptake Sites in the Rat
The affinity was determined by competition experiments using [^3 H]-nisoxetine. The membranes are prepared from the frontal cortex of the rat and are incubated in triplicate with 2 nM [^3 H]-nisoxetine and the compound being tested in a final volume of 0.5 ml, for 4 hours at 4° C. The incubation buffer contains 50 mM TRIS-HCl (pH 7.4), 120 mM NaCl and 5 mM KCl. The non-specific binding is determined using 10 μM desipramine.
(§1) At the end of the incubation, the incubation medium is filtered through WHATMAN GF/B filters impregnated with 0.1% of polyethylenimine and washed three times with 5 ml of cooled buffer. The radioactivity retained on the filters is determined by liquid scintillation counting. The binding isotherms are analysed by non-linear regression.

serotonin reuptake sites = molecular target: T2, serotonin reuptake sites (Rattus norvegicus, UniProt P31652); test: Affinity for serotonin reuptake sites in the rat, competition with [3H]-paroxetine; conditions: rat frontal cortex membranes, 0.25 nM [3H]-paroxetine, 2 hours at 25° C.
T2 construct: The membranes are prepared from the frontal cortex of the rat; from tissue; host or cells: rat frontal cortex membranes
Experimental: Determination of the Affinity for Serotonin Reuptake Sites in the Rat
The affinity was determined by competition experiments using [^3 H]-paroxetine. The membranes are prepared from the frontal cortex of the rat and are incubated in triplicate with 0.25 nM [^3 H]-paroxetine and the compound being tested in a final volume of 0.4 ml, for 2 hours at 25° C. The incubation buffer contains 50 mM TRIS-HCl (pH 7.4), 120 mM NaCl and 5 mM KCN. The non-specific binding is determined using 10 μM citalopram.
as §1

α2-adrenergic receptors = test: Affinity for α2-adrenergic receptors in the rat, competition with [3H]-RX 821,002; conditions: rat cerebral cortex membranes, 0.4 nM [3H]-RX 821,002, 60 minutes at 22° C.
Experimental: Determination of the Affinity for α2 -adrenergic Receptors in the Rat
The affinity was determined by competition experiments with [^3 H]-RX 821,002. The membranes are prepared from the cerebral cortex of the rat and are incubated in triplicate with 0.4 nM [^3 H]-RX 821,002 and the compound being tested in a final volume of 1.0 ml, for 60 minutes at 22° C. The incubation buffer contains […] TRIS-HCl (pH 7.5), 1 mM EDTA and 100 μM GppNHp. The non-specific binding is determined using 10 μM phentolamine.
as §1

T2 sequence (P31652 whole entry): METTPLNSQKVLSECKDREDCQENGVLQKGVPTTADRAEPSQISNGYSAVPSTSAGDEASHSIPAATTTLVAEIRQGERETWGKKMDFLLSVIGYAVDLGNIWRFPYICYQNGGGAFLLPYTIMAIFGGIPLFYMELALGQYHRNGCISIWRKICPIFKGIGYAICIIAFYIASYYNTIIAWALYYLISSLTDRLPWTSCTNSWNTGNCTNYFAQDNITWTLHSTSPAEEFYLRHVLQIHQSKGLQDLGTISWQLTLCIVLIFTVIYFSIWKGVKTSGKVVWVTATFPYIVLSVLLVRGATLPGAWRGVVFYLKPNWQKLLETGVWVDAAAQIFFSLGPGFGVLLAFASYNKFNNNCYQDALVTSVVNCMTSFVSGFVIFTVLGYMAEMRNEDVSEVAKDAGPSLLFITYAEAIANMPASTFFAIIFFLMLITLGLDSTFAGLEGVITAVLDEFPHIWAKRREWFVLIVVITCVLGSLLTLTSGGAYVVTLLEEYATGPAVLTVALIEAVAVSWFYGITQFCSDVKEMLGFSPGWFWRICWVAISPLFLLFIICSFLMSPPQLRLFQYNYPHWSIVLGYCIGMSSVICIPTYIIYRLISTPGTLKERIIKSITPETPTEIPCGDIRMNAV
T1 sequence (Q63380 1-617): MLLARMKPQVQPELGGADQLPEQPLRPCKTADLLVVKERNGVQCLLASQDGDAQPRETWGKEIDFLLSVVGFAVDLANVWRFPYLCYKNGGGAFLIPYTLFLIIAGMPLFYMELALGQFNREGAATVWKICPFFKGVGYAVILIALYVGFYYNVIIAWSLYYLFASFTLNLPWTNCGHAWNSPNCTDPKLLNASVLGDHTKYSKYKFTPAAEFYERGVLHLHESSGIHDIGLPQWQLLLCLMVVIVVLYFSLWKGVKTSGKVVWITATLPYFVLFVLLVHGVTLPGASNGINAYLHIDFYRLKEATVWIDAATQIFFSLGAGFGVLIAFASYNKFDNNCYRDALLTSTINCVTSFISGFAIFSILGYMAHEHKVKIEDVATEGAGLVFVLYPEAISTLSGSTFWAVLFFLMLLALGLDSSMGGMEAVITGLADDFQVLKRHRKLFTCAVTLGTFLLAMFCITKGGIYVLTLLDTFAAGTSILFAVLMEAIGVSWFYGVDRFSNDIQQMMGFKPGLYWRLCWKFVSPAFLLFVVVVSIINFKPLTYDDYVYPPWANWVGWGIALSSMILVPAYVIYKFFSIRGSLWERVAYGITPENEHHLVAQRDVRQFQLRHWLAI

- Ki [1]: 15.8 nM
Structure (SMILES): C1=N[C@H](CC2=Cc3ccccc3CC2)CN1 [Example 2, (4R)-4-(3,4-dihydro-2-naphthylmethyl)-4,5-dihydro-1H-imidazole fumarate]

Structure (SMILES): COc1cccc2c1C=C(CC1CNC=N1)CC2.O=C(O)/C=C/C(=O)O (stereo not drawn) [Example 12, 4-[(8-Methoxy-3,4-dihydro-2-naphthyl)methyl]-4,5-dihydro-1H-imidazole fumarate]
- pKi (serotonin reuptake sites): 7.8

- pKi (α2-adrenergic receptors): 8.8
Structure (SMILES): C1=NCC(CC2Cc3ccccc3C2)N1 (stereo not drawn) [Example 22, 4-(2,3-Dihydro-1H-inden-2-ylmethyl)-4,5-dihydro-1H-imidazole hemi-fumarate]
